This note sets out measurements from patent US9497965B2, “Pesticidal compounds” (Syngenta Participations AG, priority 2011, dated 2016).

Turning to `O=C(NCC1(c2c(Cl)cc(Cl)cc2Cl)CC1)c1ncccc1C(F)(F)F` [A.29, N-[[1-(2,4,6-trichlorophenyl)cyclopropyl]methyl]-3-(trifluoromethyl)pyridine-2-carboxamide], the melting point is 142 to 144 °C.

With `N#Cc1cc(F)c(C2(CNC(=O)c3ccccc3C(F)(F)F)CC2)c(F)c1` [A.57, N-[[1-(4-cyano-2,6-difluoro-phenyl)cyclopropyl]methyl]-2-(trifluoromethyl)benzamide], the melting point lay in the range of 100 to 102 °C.

What is called melting point is the temperature, or range, at which the solid turns liquid.
